Laboratory results taken from patent publication US20070009986A1, “Compositions for modulating immune cell activity and methods for detection thereof” (priority 2003, published 2007).

Tested on: CD8+CD45RO+ T-cell migration towards and away from HIV-1gp120
Test: Inhibitor profile of T-cell movement towards and away from recombinant X4 gp120 in transmigration assays
Format: cell-based, human
Conditions: for inhibition of migration away from gp120: T-cells including HIV-specific CTL
Protocol: Transmigration assays: Transmigration assays were performed in a transwell system with a polycarbonate membrane of 6.5-mm diameter with 5 μm pore size (Corning, Corning, N.Y.) as described (Kim et al., 1998, Blood 91:4434-4443; Poznansky et al., 2000, Nat Med 6:543-548). Purified T-cell subpopulations (5×10^4 cells) were added to the upper chamber of each well in a total volume of 150 μl Iscove's modified media. SDF-1α (PeproTech, Rocky Hill, N.J.) or recombinant HIV-1 gp120 (Immunodiagnostics, Woburn, Mass., AIDS Reagent Repository, NIH or RW) was used at concentrations ranging from 2 ng/ml to […] in the lower, upper, or both lower and upper chambers of the transwell to generate a standard “checkerboard” analysis matrix of positive, negative and absent gradients. Recombinant variable loop deletion mutants of HIV-1IIIB gp120 including V1, V1.V2, and V1.V2.V3, were also used in these assays. Transwells were incubated for 3 hours at 37° C., after which cells were collected from the lower chamber and counted.
Specific components of the Gi-protein coupled receptor signaling pathway for SDF-1 can be blocked by a number of different chemical inhibitor (Poznansky et al., 2000, Nat Med 6:543-548; Poznansky et al., 2002, Clin. Invest. 109:1101-1110; Sotsios et al., 1999, J. Immunol. 163:5954-5963; Vlahakis et al. 2001, J. Clin. Invest. 107:207-215). The inhibitor profile for movement of resting T-cell subpopulations towards and away from recombinant X4 gp120 in transmigration assays had been established.

| Molecule | inhibition of T-cell migration towards and away from HIV-1gp120 (CD8+CD45RO+ T-cells incubated with inhibitor prior to transmigration assay, FIG. 2) | inhibition of migration away from gp120 |
| --- | --- | --- |
| pertussis toxin | significantly inhibited | inhibited |
| Nc1ncnc2c1nc(Br)n2[C@@H]1O[C@@H]2COP(=O)(O)O[C@H]2[C@H]1O [8-Br-cAMP] |  | inhibited |
